Reference: publication PMC7979765, “trans-Translation inhibitors bind to a novel site on the ribosome and clear Neisseria gonorrhoeae in vivo” (Nature Communications, 2021)
In brackets after ≈: the same amount, converted by molar mass. Several values for one entry are separate records, joined by “and”; a condition that tells them apart may be missing. Identical values can stand only once. Like-named read-outs stand apart in the source and are kept apart here.

Assays:
Neisseria gonorrhoeae = experiment: MIC, microbroth dilution, G77L medium; format: cell-based
[1] = Mammalian cell cytotoxicity (CC50); format: cell-based, human; conditions: human, HeLa cells (ATCC CCL-2)
Method: (§1) The half maximal cytotoxic concentration (CC50) of each compound against HeLa cells (ATCC CCL-2) was measured as previously described. […] The mean values for each biological replicate were averaged, and the CC50 was determined using a 4-parameter nonlinear curve fitting algorithm (GraphPad Prism). The average of the CC50s from two biological replicates was calculated and reported.

HeLa cells = experiment: Mammalian cell cytotoxicity (CC50); format: cell-based, human; conditions: listed as MBX-3535; for NORMALIZED DATA (Fraction DMSO Control): HeLa, replicates
Method: as §1

[2] = HeLa cytotoxicity, one value per replicate

O=C(Nc1nnc(-c2ccc(F)cc2)o1)c1ccc(Cl)cc1 [KKL-35, 4-chloro-N-(5-(4-fluorophenyl)-1,3,4-oxadiazol-2-yl)benzamide]
MIC (Neisseria gonorrhoeae; Neisseria gonorrhoeae, strain MMX 6812, single data point, Micromyx, read-out: MIC): 0.13 µg/mL (≈ 0.409 µM)
MIC (Neisseria gonorrhoeae; Neisseria gonorrhoeae, strain MMX 6818, CIP, by Micromyx, read-out: MIC): 0.13 µg/mL (≈ 0.409 µM)
MIC (Neisseria gonorrhoeae; Neisseria gonorrhoeae, strain MMX 6818, single data point, Micromyx, read-out: MIC): 0.13 µg/mL (≈ 0.409 µM)
MIC (Neisseria gonorrhoeae; Neisseria gonorrhoeae, strain MMX 6819, CIP, by Micromyx, read-out: MIC): 0.13 µg/mL (≈ 0.409 µM)
MIC (Neisseria gonorrhoeae; Neisseria gonorrhoeae, strain MMX 6819, single data point, Micromyx, read-out: MIC): 0.13 µg/mL (≈ 0.409 µM)
MIC (Neisseria gonorrhoeae; Neisseria gonorrhoeae, strain MMX 6879, by Micromyx, read-out: MIC): 0.06 µg/mL (≈ 0.189 µM)
MIC (Neisseria gonorrhoeae; Neisseria gonorrhoeae, strain MMX 6879, single data point, Micromyx, read-out: MIC): 0.06 µg/mL (≈ 0.189 µM)
MIC (Neisseria gonorrhoeae; Neisseria gonorrhoeae, strain MMX 6921, CIP, by Micromyx, read-out: MIC): 0.25 µg/mL (≈ 0.787 µM)
MIC (Neisseria gonorrhoeae; Neisseria gonorrhoeae, strain MMX 6921, single data point, Micromyx, read-out: MIC): 0.25 µg/mL (≈ 0.787 µM)
MIC (Neisseria gonorrhoeae; Neisseria gonorrhoeae, strain MMX 6922, CIP, by Micromyx, read-out: MIC): 0.25 µg/mL (≈ 0.787 µM)
MIC (Neisseria gonorrhoeae; Neisseria gonorrhoeae, strain MMX 6922, single data point, Micromyx, read-out: MIC): 0.25 µg/mL (≈ 0.787 µM)
MIC (Neisseria gonorrhoeae; Neisseria gonorrhoeae, strain MMX 6983, CIP, by Micromyx, read-out: MIC): 0.25 µg/mL (≈ 0.787 µM)
MIC (Neisseria gonorrhoeae; Neisseria gonorrhoeae, strain MMX 6983, single data point, Micromyx, read-out: MIC): 0.25 µg/mL (≈ 0.787 µM)
MIC (Neisseria gonorrhoeae; Neisseria gonorrhoeae, strain MMX 6989, by Micromyx, read-out: MIC): 0.13 µg/mL (≈ 0.409 µM)
MIC (Neisseria gonorrhoeae; Neisseria gonorrhoeae, strain MMX 6989, single data point, Micromyx, read-out: MIC): 0.13 µg/mL (≈ 0.409 µM)
MIC (Neisseria gonorrhoeae; Neisseria gonorrhoeae, strain MMX 6990, CIP, by Micromyx, read-out: MIC): 0.06 µg/mL (≈ 0.189 µM)
MIC (Neisseria gonorrhoeae; Neisseria gonorrhoeae, strain MMX 6990, single data point, Micromyx, read-out: MIC): 0.06 µg/mL (≈ 0.189 µM)
MIC (Neisseria gonorrhoeae; Neisseria gonorrhoeae, strain MMX 6992, by Micromyx, read-out: MIC): 0.13 µg/mL (≈ 0.409 µM)
MIC (Neisseria gonorrhoeae; Neisseria gonorrhoeae, strain MMX 6992, single data point, Micromyx, read-out: MIC): 0.13 µg/mL (≈ 0.409 µM)
MIC (Neisseria gonorrhoeae; Neisseria gonorrhoeae, strain MMX 6996, by Micromyx, read-out: MIC): 0.13 µg/mL (≈ 0.409 µM)
MIC (Neisseria gonorrhoeae; Neisseria gonorrhoeae, strain MMX 6996, single data point, Micromyx, read-out: MIC): 0.13 µg/mL (≈ 0.409 µM)
MIC (Neisseria gonorrhoeae; Neisseria gonorrhoeae, strain MMX 6998, CIP, by Micromyx, read-out: MIC): 0.25 µg/mL (≈ 0.787 µM)
MIC (Neisseria gonorrhoeae; Neisseria gonorrhoeae, strain MMX 6998, single data point, Micromyx, read-out: MIC): 0.25 µg/mL (≈ 0.787 µM)
MIC (Neisseria gonorrhoeae; Neisseria gonorrhoeae, strain MMX 7002, CIP, by Micromyx, read-out: MIC): 0.13 µg/mL (≈ 0.409 µM)
MIC (Neisseria gonorrhoeae; Neisseria gonorrhoeae, strain MMX 7002, single data point, Micromyx, read-out: MIC): 0.13 µg/mL (≈ 0.409 µM)
MIC (Neisseria gonorrhoeae; Neisseria gonorrhoeae, strain MMX 7005, by Micromyx, read-out: MIC): 0.03 µg/mL (≈ 0.0944 µM)
MIC (Neisseria gonorrhoeae; Neisseria gonorrhoeae, strain MMX 7005, single data point, Micromyx, read-out: MIC): 0.03 µg/mL (≈ 0.0944 µM)
MIC90 (Neisseria gonorrhoeae; Neisseria gonorrhoeae, Supplementary Table 3, n = 32 (KKL-35), 71 (MBX-4132) strains, read-out: MIC90 (n)): 0.25 µg/mL (≈ 0.787 µM)
MIC (Neisseria gonorrhoeae; strain ATCC 49226, replicates 1-3): 0.124 µg/mL (≈ 0.39 µM)
MIC (Neisseria gonorrhoeae; strain ATCC 700719, replicates 1-3): 0.248 µg/mL (≈ 0.781 µM)
MIC (Neisseria gonorrhoeae; strain ATCC 700825, replicates 1-3): 0.062 µg/mL (≈ 0.195 µM)
MIC (Neisseria gonorrhoeae; strain BAA-1846, replicates 1-3): 0.062 µg/mL (≈ 0.195 µM)
MIC (Neisseria gonorrhoeae; strain HO41, replicates 1-3): 0.248 µg/mL (≈ 0.781 µM)
CC50 [1, 2]: 30.5 µM
CC50 ([1]; half-maximal cytotoxic concentration against HeLa cells): > 100 µM
CC50 (HeLa cells; [2]): 30.6 µM and 26 µM and 22 µM and 29.1 µM and 34.1 µM
NORMALIZED DATA (Fraction DMSO Control) (HeLa cells; [CMPD] 0.78125 µM): 0.9983 Fraction DMSO Control and 0.9009 Fraction DMSO Control and 0.8841 Fraction DMSO Control and 1.049 Fraction DMSO Control and 0.992 Fraction DMSO Control and 0.9968 Fraction DMSO Control
NORMALIZED DATA (Fraction DMSO Control) (HeLa cells; [CMPD] 1.5625 µM): 0.9916 Fraction DMSO Control and 0.9029 Fraction DMSO Control and 0.888 Fraction DMSO Control and 1.05 Fraction DMSO Control and 0.9984 Fraction DMSO Control and 0.9932 Fraction DMSO Control
NORMALIZED DATA (Fraction DMSO Control) (HeLa cells; [CMPD] 3.125 µM): 0.9963 Fraction DMSO Control and 0.9267 Fraction DMSO Control and 0.8661 Fraction DMSO Control and 1.071 Fraction DMSO Control and 1.023 Fraction DMSO Control and 1.002 Fraction DMSO Control
NORMALIZED DATA (Fraction DMSO Control) (HeLa cells; [CMPD] 6.25 µM): 1.002 Fraction DMSO Control and 0.9334 Fraction DMSO Control and 0.856 Fraction DMSO Control and 1.09 Fraction DMSO Control and 1.008 Fraction DMSO Control and 1.022 Fraction DMSO Control
NORMALIZED DATA (Fraction DMSO Control) (HeLa cells; [CMPD] 12.5 µM): 0.9694 Fraction DMSO Control and 0.9248 Fraction DMSO Control and 0.8736 Fraction DMSO Control and 1.069 Fraction DMSO Control and 1.012 Fraction DMSO Control and 1.014 Fraction DMSO Control
NORMALIZED DATA (Fraction DMSO Control) (HeLa cells; [CMPD] 25 µM): 0.8994 Fraction DMSO Control and 0.8509 Fraction DMSO Control and 0.795 Fraction DMSO Control and 0.4926 Fraction DMSO Control and 0.6416 Fraction DMSO Control and 0.799 Fraction DMSO Control
NORMALIZED DATA (Fraction DMSO Control) (HeLa cells; [CMPD] 50 µM): 0.6292 Fraction DMSO Control and 0.6178 Fraction DMSO Control and 0.5987 Fraction DMSO Control and 0.3592 Fraction DMSO Control and 0.3855 Fraction DMSO Control and 0.3659 Fraction DMSO Control
NORMALIZED DATA (Fraction DMSO Control) (HeLa cells; [CMPD] 100 µM): 0.6116 Fraction DMSO Control and 0.6041 Fraction DMSO Control and 0.6139 Fraction DMSO Control and 0.191 Fraction DMSO Control and 0.1882 Fraction DMSO Control and 0.2089 Fraction DMSO Control
